Assay [1] can be described thus: non-specific 3'UTR reporter inhibition in Clone20-Shn3RL – cell-based, Renilla luciferase, cherry-picked, counter-screen for Shn3 inhibitor project, dose response (AID 624133). The format is functional. On the technique in general: Counterscreens check selectivity or assay interference.
Assay [2] deals with A-375. Put plainly: proliferation inhibition in MITF-low A375 cells – cell-based, cherry-pick samples, set 2, counter-screen for MITF modulator project, dose response (AID 540335). The format is functional. The note with it: Homo sapiens.
The nature of assay [3]: blockers of FN fibrillogenesis by fibroblasts – AH1F cells, Alexa488-FN fluorescence, cherry-picks, dose response (AID 1035475). The format is functional, cell-based.
The nature of assay [4]: loss of viability in HepG2 cells – cell-based, CellTiter-Glo, cherry-picked, cytotoxicity control for Shn3 inhibitor project, dose response (AID 624134). In kind it is functional. On the technique in general: In ATP-based viability assays light output follows the ATP content of the culture.
Assay [5] can be described thus: viability of PTEN-deleted HCT116 cells – cell-based, HCT116 PTEN knockout, dose response (AID 1047).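 Also: HCT116 colon tumor cells with PTEN knocked out; cells exposed to compound for 60 hours before readout; potency for loss of cell viability measured by luminescence.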 The format is functional.
Assay [6] in a line: reduction of Shn3 3'UTR-driven luciferase in osteoblasts – cell-based, Clone20 osteoblasts, firefly luciferase, cherry-picked, dose response (AID 624132).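 Also: firefly luciferase luminescence from reporter carrying the Shn3 3'UTR in osteoblasts.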 The format is functional.
Assay [7] has as its target T1, Microphthalmia-associated transcription factor (Homo sapiens, UniProt O75030).
T1 sequence (O75030 whole entry): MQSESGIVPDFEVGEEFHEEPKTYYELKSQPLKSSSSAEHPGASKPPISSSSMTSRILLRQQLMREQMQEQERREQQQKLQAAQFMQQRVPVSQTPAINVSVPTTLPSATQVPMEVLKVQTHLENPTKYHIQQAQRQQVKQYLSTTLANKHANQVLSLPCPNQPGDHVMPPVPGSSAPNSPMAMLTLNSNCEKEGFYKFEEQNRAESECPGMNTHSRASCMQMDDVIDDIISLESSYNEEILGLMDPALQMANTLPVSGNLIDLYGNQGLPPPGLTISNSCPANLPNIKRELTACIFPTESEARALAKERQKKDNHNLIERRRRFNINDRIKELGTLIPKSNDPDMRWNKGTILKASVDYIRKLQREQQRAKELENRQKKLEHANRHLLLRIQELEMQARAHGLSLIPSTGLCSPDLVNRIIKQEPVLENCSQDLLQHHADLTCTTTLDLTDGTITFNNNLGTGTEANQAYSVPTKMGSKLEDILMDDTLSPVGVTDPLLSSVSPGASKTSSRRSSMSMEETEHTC
Put plainly: reducers of TRPM1 reporter luminescence, concentration series – cell-based, SK-MEL-5, cherry-picked, set 3, MITF inhibitor project, dose response (AID 493073).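 Also: SK-MEL-5 melanoma cells with luciferase driven by the MITF target TRPM1 promoter.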 The format is functional.

For assay [8], the system named is A-375. Put plainly: MITF: Counter assay: A375 proliferation Measured in Cell-Based System Using Plate Reader - 2084-03_Inhibitor_Dose_DryPowder_Activity. [Related pubchem assays (depositor defined):AID488944]. In kind it is functional. To be noted: Homo sapiens.
Assay [9] is described as follows: viability of HCT116 lacking mutant beta-catenin – cell-based, human colon tumor, dose response (AID 1045).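 Also: HCT116 colon tumor cells with beta catenin knocked out; cells exposed to compound for 60 hours.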 In kind it is functional.
Assay [10] is described as follows: viability loss in HepG2 hepatoma cells – cell-based, cherry-picks, set 5, cytotoxicity control, dose response (AID 1053118). The format is functional.
In assay [11] the target is T2, Fibrinogen beta chain (Homo sapiens, UniProt P02675). Put plainly: Fluorescence polarization-based biochemical high throughput dose response assay to identify inhibitors that disrupt the binding of a cyclic peptide (Tn6) to the fibrin proteolytic product D-Dimer and fragment E complex [DD(E )]. A general note: Polarisation of emitted light reports the rotation of a fluorescent probe.
T2 sequence (P02675 whole entry, the tested form may be a part): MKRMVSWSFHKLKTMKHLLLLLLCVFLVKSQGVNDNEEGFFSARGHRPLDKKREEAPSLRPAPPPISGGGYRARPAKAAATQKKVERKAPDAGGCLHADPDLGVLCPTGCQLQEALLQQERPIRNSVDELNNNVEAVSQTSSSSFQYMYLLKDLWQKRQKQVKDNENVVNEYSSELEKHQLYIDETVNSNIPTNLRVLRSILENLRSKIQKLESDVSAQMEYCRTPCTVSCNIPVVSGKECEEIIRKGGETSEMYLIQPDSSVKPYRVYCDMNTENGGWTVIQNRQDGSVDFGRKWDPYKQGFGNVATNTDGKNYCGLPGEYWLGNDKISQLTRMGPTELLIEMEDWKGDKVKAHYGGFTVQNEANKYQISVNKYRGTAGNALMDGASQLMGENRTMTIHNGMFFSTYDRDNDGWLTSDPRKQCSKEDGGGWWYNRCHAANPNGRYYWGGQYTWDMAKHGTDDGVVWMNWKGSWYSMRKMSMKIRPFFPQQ

The target in the next assay is T3, Protein skinhead-1 (Caenorhabditis elegans, UniProt P34707).
T3 sequence (P34707 whole entry): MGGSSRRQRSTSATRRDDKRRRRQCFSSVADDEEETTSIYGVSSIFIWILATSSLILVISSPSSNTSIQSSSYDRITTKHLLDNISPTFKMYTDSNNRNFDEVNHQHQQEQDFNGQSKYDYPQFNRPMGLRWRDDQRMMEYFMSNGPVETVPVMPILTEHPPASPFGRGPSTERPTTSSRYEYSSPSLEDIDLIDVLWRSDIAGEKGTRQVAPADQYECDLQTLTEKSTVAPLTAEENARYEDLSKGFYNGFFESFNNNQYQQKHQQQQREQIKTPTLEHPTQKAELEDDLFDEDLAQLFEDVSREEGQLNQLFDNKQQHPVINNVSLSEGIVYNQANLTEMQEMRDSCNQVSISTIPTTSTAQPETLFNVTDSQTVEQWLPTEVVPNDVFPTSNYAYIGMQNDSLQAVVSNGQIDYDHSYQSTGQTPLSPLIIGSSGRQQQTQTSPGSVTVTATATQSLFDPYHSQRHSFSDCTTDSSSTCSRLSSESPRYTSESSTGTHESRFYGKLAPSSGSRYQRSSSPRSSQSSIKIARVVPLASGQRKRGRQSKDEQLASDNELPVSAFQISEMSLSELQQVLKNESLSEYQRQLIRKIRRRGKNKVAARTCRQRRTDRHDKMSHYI
The format is functional.

Assay [12] addresses T2, Fibrinogen beta chain. Put plainly: Fluorescence polarization-based biochemical high throughput dose response assay to identify inhibitors that disrupt the binding of a cyclic peptide (Tn7) to the fibrin proteolytic product D-Dimer and fragment E complex [DD(E )].
Another assay deals with Protein Wnt-3a (Mus musculus, UniProt P27467). Put plainly: antagonism of Wnt3a pathway luciferase reporter – Wnt-LIGHT cells, luminescence, selectivity assay for Gli-SUFU antagonist project, dose response (AID 651570).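 Also: Wnt-LIGHT reporter cells stimulated with conditioned medium from Wnt3a-producing cells.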 In kind it is functional. To be noted: read-out: IC50_Mean.
Assay [13] is described as follows: Shn3 3'UTR reporter signal decrease – cell-based, Clone20 osteoblasts, firefly luciferase, cherry-pick, set 2, Schnurri-3 inhibitor project, dose response (AID 720490).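 Also: actives lower the luminescence signal as inhibitors.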 The format is functional.
Assay [14] concerns the target T4, Small ubiquitin-related modifier 1 (Homo sapiens, UniProt P63165). In words: SUMO1 protein interaction blockers, potency – biochemical, fluorescence polarization, uHTS hits, dose response (AID 624382). The format is functional. To be noted: read-out: IC50_Mean.
In assay [15] the target is Photoreceptor-specific nuclear receptor (Homo sapiens, UniProt Q9Y5X4). Put plainly: ligands suppressing NR2E3 nuclear receptor activity – biochemical, TR-FRET, dose response (AID 463256). The format is functional.
Photoreceptor-specific nuclear receptor, sequence (Q9Y5X4 whole entry): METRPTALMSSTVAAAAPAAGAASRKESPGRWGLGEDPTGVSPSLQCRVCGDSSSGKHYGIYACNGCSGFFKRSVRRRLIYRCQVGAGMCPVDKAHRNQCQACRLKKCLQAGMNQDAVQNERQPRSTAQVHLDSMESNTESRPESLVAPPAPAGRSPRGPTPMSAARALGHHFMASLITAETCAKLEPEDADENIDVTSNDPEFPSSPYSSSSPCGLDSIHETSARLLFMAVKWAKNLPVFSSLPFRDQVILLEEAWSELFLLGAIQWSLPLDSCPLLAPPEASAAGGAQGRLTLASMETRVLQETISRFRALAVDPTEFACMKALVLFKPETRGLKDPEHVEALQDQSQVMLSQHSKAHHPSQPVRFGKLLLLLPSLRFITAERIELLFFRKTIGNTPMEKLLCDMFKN
The target in assay [16] is T4, Small ubiquitin-related modifier 1. In words: SUMO1 protein-protein binding blockers, potency – biochemical, FRET, dose response (AID 624383). The format is functional. To be noted: read-out: IC50_Mean.
Assay [17] has as its target Peroxisome proliferator-activated receptor gamma/Nuclear receptor corepressor 2 (Homo sapiens, UniProt P37231+Q9Y618). In words: Counterscreen for NR2E3 inverse agonists: TR-FRET-based biochemical high throughput dose response assay to identify inverse agonists of the interaction between peroxisome proliferator-activated receptor gamma (PPARg) and nuclear receptor co-repressor 2 (NCOR2). The format is functional.

For assay [18], the target named is E3 ubiquitin-protein ligase UHRF1 (Homo sapiens, UniProt Q96T88). In words: Counterscreen for inhibitors of 5-meCpG-binding domain protein 2 (MBD2): TRFRET-based biochemical high throughput dose response assay to identify inhibitors of binding of ubiquitin-like with PHD and ring finger domains 1 (UHRF1) to methylated oligonucleotide.
E3 ubiquitin-protein ligase UHRF1, sequence (Q96T88 whole entry, the tested form may be a part): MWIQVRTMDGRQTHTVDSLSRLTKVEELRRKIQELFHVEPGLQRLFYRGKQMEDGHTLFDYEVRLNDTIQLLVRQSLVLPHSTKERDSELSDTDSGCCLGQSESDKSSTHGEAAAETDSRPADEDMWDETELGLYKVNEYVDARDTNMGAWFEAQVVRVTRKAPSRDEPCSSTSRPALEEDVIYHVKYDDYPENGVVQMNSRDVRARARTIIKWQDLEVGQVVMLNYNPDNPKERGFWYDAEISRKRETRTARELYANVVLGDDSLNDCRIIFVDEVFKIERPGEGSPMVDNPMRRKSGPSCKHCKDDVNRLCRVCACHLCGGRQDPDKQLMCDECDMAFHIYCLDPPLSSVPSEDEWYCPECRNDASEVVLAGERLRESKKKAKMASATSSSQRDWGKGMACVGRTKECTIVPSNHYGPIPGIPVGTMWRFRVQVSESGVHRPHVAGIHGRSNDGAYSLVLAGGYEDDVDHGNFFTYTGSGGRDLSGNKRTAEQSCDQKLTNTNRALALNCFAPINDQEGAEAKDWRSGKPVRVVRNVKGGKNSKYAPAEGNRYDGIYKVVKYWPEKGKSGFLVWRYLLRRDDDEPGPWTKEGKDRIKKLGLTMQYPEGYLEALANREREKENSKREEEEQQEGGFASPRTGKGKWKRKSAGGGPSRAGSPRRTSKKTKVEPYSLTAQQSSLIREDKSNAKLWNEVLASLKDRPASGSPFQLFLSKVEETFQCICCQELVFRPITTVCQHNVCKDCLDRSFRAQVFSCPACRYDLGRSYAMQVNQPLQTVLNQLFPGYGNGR

Each structure is given as a SMILES string. Activity calls are given as the source filed them.

T4 sequence (P63165 whole entry): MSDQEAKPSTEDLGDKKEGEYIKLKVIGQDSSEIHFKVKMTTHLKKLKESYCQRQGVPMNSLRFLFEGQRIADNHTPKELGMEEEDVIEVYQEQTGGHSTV
Peroxisome proliferator-activated receptor gamma/Nuclear receptor corepressor 2, sequence (P37231 whole entry): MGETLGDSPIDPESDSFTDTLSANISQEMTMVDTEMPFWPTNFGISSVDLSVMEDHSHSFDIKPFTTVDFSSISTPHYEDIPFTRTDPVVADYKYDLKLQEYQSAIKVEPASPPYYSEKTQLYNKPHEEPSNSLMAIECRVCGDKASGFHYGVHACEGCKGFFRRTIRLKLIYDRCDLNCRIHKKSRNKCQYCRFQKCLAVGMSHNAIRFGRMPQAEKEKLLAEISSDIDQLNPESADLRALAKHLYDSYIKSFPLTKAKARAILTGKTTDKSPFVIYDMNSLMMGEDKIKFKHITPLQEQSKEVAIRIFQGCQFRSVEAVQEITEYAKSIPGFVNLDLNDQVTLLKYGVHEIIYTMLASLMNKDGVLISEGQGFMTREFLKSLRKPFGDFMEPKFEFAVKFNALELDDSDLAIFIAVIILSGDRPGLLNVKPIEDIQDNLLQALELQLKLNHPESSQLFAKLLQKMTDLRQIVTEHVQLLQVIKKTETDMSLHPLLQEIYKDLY
Peroxisome proliferator-activated receptor gamma/Nuclear receptor corepressor 2, sequence (Q9Y618 whole entry): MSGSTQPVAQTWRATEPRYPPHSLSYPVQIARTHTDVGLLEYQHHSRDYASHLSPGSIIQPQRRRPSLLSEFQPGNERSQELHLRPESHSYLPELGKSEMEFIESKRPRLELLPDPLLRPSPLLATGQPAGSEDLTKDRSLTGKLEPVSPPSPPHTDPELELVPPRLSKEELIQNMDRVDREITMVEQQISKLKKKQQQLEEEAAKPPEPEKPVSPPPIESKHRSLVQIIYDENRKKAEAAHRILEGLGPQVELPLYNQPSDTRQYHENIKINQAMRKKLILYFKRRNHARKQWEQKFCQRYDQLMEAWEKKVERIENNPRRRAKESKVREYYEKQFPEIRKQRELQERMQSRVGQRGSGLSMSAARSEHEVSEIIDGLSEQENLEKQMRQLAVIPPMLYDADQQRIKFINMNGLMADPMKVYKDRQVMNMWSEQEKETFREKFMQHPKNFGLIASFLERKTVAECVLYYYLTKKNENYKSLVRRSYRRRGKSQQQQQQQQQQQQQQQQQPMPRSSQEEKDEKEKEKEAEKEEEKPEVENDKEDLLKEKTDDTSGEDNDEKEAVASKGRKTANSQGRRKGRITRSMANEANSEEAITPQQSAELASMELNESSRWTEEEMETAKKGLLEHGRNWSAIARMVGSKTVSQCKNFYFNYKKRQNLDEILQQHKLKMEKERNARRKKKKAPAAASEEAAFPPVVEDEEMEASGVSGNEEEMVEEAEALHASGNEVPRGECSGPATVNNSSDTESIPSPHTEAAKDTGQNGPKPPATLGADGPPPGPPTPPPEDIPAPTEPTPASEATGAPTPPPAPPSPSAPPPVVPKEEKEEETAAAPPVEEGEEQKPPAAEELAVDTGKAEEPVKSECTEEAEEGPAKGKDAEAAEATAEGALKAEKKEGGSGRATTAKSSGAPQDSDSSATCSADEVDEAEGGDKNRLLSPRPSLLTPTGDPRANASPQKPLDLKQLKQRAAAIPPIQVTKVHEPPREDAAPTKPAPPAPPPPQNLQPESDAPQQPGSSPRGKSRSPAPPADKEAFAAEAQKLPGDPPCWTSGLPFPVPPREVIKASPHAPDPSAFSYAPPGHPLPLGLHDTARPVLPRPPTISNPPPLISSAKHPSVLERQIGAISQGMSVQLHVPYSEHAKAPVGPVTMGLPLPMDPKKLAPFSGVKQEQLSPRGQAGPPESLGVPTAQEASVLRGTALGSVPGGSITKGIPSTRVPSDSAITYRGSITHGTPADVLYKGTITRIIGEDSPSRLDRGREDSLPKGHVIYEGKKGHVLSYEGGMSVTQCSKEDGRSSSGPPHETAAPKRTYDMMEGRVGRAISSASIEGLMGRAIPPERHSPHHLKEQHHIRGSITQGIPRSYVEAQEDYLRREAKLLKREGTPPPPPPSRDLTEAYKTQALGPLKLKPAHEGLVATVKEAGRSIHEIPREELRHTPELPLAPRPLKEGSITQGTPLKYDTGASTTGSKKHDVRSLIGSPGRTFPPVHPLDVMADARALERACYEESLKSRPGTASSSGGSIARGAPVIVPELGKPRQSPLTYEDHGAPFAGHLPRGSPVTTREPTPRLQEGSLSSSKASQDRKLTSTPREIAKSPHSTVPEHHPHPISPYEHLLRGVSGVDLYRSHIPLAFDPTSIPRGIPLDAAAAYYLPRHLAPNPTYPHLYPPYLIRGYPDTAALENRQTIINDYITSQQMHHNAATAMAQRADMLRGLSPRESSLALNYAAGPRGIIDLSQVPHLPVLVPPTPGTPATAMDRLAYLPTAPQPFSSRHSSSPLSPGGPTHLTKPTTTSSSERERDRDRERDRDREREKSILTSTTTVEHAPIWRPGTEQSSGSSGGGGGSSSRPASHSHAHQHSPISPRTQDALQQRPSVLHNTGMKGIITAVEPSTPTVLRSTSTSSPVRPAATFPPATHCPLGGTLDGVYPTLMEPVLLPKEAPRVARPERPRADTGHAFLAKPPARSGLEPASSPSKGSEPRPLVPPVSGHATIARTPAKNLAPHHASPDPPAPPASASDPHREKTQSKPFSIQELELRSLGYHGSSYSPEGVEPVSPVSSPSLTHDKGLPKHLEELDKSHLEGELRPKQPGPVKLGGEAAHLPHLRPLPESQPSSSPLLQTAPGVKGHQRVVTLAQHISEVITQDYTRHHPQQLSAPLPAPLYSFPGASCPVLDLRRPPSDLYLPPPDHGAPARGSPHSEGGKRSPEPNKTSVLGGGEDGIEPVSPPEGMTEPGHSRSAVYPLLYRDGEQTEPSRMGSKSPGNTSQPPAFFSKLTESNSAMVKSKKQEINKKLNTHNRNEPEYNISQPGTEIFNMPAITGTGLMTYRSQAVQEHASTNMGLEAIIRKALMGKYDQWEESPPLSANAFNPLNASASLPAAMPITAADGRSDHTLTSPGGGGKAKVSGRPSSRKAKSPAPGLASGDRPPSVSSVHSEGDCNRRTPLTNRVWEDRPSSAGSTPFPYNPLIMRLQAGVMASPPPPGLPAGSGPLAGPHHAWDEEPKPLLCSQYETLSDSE

What is called AC50 is the concentration at which the activity in the assay is half-maximal. For orientation: EC50 means the concentration that produces a half-maximal response. Regarding `Cn1cc([N+](=O)[O-])c(C(=O)Nc2cc(Oc3ccccc3)cc([N+](=O)[O-])c2)n1`, the concentration at half-maximal activity (AC50) in assay [1] is 2.82 µM (active); with A-375 [2], > 35 µM (active); in [3], 12.3 µM (active); in [4], 19.8 µM (active); in assay [6], 5.41 µM (active); in assay [7], 12.4 µM (active). The AC50 with A-375 [8] was > 35 µM (active); in assay [10], 21.9 µM (active). Also, the EC50 was 0.389 µM (active) in assay [5] and 0.309 µM (active) in assay [9].

`c1ccc2c(c1)CCN(C1=Nc3cccc4cccc1c34)C2`: the IC50 was 46.1 µM (inactive) at Fibrinogen beta chain [11], > 100 µM (inactive) at Protein skinhead-1 and > 83.3 µM (inactive) at Fibrinogen beta chain [12].

With `CC(C)Cn1c(N)c(C(=O)COC(=O)C2Cc3ccccc3CN2S(C)(=O)=O)c(=O)n(C)c1=O` (stereo not drawn), the AC50 in [1] is 4.76 µM (active); in assay [4], > 70 µM (inactive); in [6], 0.72 µM (active); in [13], 0.897 µM (active). Moreover, the IC50 on Protein Wnt-3a is 6.31 µM (active).

Take `N#CCC(=O)Nc1ccc(C(=O)OCC(=O)c2ccc3c(c2)NC(=O)CO3)cc1`: the IC50 in assay [14] is > 66.6 µM (inactive); in assay [15], 4.46 µM (active); in assay [16] it was 10.1 µM (active); in assay [17], 4.39 µM (active); in assay [18], > 43.8 µM (inactive).

The values are drawn from ChEMBL document CHEMBL1201862, “PubChem BioAssay data set” (2004).
